Assay results: PubChem BioAssay AID330 (DTP/NCI, 2004)
Where “and” joins values, the source holds several entries; their conditions need not be identical. Equal values may be shown once. Toxic doses and inconclusive results are not listed. The calls were made as follows: active = survival T/C of 150% or more; inactive = T/C below 125% in these data. Peptide text beside a SMILES is read from it.

Tested on: P388 leukemia ip, CD2F1 mice, survival T/C
Test: NCI In Vivo Anticancer Drug Screen. Data for tumor model P388 Leukemia (intraperitoneal) in CD2F1 (CDF1) mice
Settings: endpoint: median survival time, higher = longer survival
Procedure, shortened: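 Mice carrying the transplanted tumor received test compound or vehicle. Survival was recorded in each group, and the value is the treated-group measurement divided by that of the vehicle-treated control group.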

[1] = dose: 50.0 mg/kg/injection, schedule: Q01DX009 (ip), vehicle: saline with Tween-80
[2] = dose: 100.0 mg/kg/injection, schedule: Q01DX009 (ip), vehicle: saline with Tween-80
[3] = dose: 200.0 mg/kg/injection, schedule: Q01DX009 (ip), vehicle: saline with Tween-80
[4] = dose: 50.0 mg/kg/injection, schedule: Q01DX009 (ip), vehicle: Klucel (hydroxypropylcellulose) (HPC)
[5] = dose: 100.0 mg/kg/injection, schedule: Q01DX009 (ip), vehicle: Klucel (hydroxypropylcellulose) (HPC)
[6] = dose: 200.0 mg/kg/injection, schedule: Q01DX009 (ip), vehicle: Klucel (hydroxypropylcellulose) (HPC)
[7] = dose: 60.0 mg/kg/injection, schedule: Q01DX005 (ip), vehicle: saline with Tween-80
[8] = dose: 120.0 mg/kg/injection, schedule: Q01DX005 (ip), vehicle: saline with Tween-80
[9] = dose: 12.5 mg/kg/injection, schedule: Q01DX009 (ip), vehicle: Klucel (hydroxypropylcellulose) (HPC)
[10] = dose: 25.0 mg/kg/injection, schedule: Q01DX009 (ip), vehicle: Klucel (hydroxypropylcellulose) (HPC)
[11] = dose: 50.0 mg/kg/injection, schedule: Q01DX005 (ip), vehicle: saline with Tween-80
[12] = dose: 100.0 mg/kg/injection, schedule: Q01DX005 (ip), vehicle: saline with Tween-80
[13] = dose: 25.0 mg/kg/injection, schedule: Q01DX005 (ip), vehicle: saline with Tween-80

Measured: T/C

O=C(CCl)NC(Cc1ccccc1)C(=O)O (configuration not stated)
inactive: dose: 25.0 mg/kg/injection, schedule: Q01DX009 (ip), vehicle: saline with Tween-80 99 % of control | [1] 99 % of control and 89 % of control | [2] 100 % of control and 104 % of control | [3] 94 % of control | dose: 400.0 mg/kg/injection, schedule: Q01DX009 (ip), vehicle: saline with Tween-80 103 % of control

O=[N+]([O-])c1ccc(S(=O)(=O)Nc2ccc(-c3ccccc3)cc2)cc1
inactive: dose: 100.0 mg/kg/injection, schedule: Q01DX009 (ip), vehicle: other 105 % of control | dose: 200.0 mg/kg/injection, schedule: Q01DX009 (ip), vehicle: other 100 % of control | dose: 400.0 mg/kg/injection, schedule: Q01DX009 (ip), vehicle: other 100 % of control

COc1ccc2c(c1)-c1nn(CCO)c(-c3ccccn3)c1CC2
inactive: [4] 109 % of control | [5] 106 % of control | [6] 106 % of control

CCS(=O)(=O)[O][Sn]([CH2]C)([CH2]C)[O]S(=O)(=O)CC
inactive: dose: 1.56 mg/kg/injection, schedule: Q04DX003 (ip), vehicle: saline 107 % of control | dose: 3.12 mg/kg/injection, schedule: Q04DX003 (ip), vehicle: saline 110 % of control | dose: 6.25 mg/kg/injection, schedule: Q04DX003 (ip), vehicle: saline 116 % of control and 121 % of control

CCCCN(C(=O)C(C)C)c1nc(C)co1
inactive: [1] 112 % of control | [2] 118 % of control | [3] 96 % of control

CCCCCCC(=O)c1c(O)c2ccccc2oc1=O
inactive: [7] 100 % of control | [8] 88 % of control

CC1(C)CC(=O)C(C(c2ccc3c(c2)OCO3)C2C(=O)CC(C)(C)CC2=O)C(=O)C1
inactive: dose: 50.0 mg/kg/injection, schedule: Q01DX005 (ip), vehicle: Klucel (hydroxypropylcellulose) (HPC) 91 % of control | dose: 100.0 mg/kg/injection, schedule: Q01DX005 (ip), vehicle: Klucel (hydroxypropylcellulose) (HPC) 101 % of control | dose: 200.0 mg/kg/injection, schedule: Q01DX005 (ip), vehicle: Klucel (hydroxypropylcellulose) (HPC) 104 % of control

CCCCC([Se])=NCCC(C)C
inactive: dose: 6.25 mg/kg/injection, schedule: Q01DX009 (ip), vehicle: Klucel (hydroxypropylcellulose) (HPC) 105 % of control | [9] 108 % of control | [10] 93 % of control

COc1ccc(N2C(=O)C(=O)C(C(C)=O)C2=O)cc1 (configuration not stated)
inactive: dose: 100.0 mg/kg/injection, schedule: Q04DX002 (ip), vehicle: saline with Tween-80 100 % of control | dose: 200.0 mg/kg/injection, schedule: Q04DX002 (ip), vehicle: saline with Tween-80 94 % of control

N#CC(C(=O)C(=O)NC1C2CC3CC(C2)CC1C3)c1c(Cl)cccc1Cl (configuration not stated)
inactive: [7] 104 % of control | [8] 106 % of control | dose: 240.0 mg/kg/injection, schedule: Q01DX005 (ip), vehicle: saline with Tween-80 100 % of control

CC(CC(=O)c1ccccc1)=NCC(O)CN=C(C)CC(=O)c1ccccc1.[Cu] (configuration not stated)
inactive: dose: 12.5 mg/kg/injection, schedule: Q04DX003 (ip), vehicle: saline with Tween-80 96 % of control | dose: 25.0 mg/kg/injection, schedule: Q04DX003 (ip), vehicle: saline with Tween-80 93 % of control | dose: 50.0 mg/kg/injection, schedule: Q04DX003 (ip), vehicle: saline with Tween-80 96 % of control | dose: 100.0 mg/kg/injection, schedule: Q04DX003 (ip), vehicle: saline with Tween-80 94 % of control and 98 % of control | dose: 200.0 mg/kg/injection, schedule: Q04DX003 (ip), vehicle: saline with Tween-80 101 % of control and 92 % of control | dose: 400.0 mg/kg/injection, schedule: Q04DX003 (ip), vehicle: saline with Tween-80 96 % of control

Nc1ccc(C2=Cc3ccc(N)cc3S2(=O)=O)cc1
inactive: dose: 100.0 mg/kg/injection, schedule: Q04DX002 (ip), vehicle: saline 99 % of control | dose: 200.0 mg/kg/injection, schedule: Q04DX002 (ip), vehicle: saline 99 % of control | dose: 400.0 mg/kg/injection, schedule: Q04DX002 (ip), vehicle: saline 101 % of control

O=C1CC2(CCCCC2)CC(=O)N1c1ccc(O)c(CN2CCCCC2)c1
inactive: [4] 104 % of control | [5] 108 % of control | [6] 102 % of control

CC(=O)NC(Cc1ccccc1)C(=O)NC(Cc1ccccc1)C(=O)O (stereo not drawn) (Ac-Phe-Phe-OH; configuration not given here)
inactive: [11] 107 % of control | [12] 103 % of control | dose: 200.0 mg/kg/injection, schedule: Q01DX005 (ip), vehicle: saline with Tween-80 94 % of control

CCCCCCOC(=O)C(N)Cc1ccc(N(CCCl)CCCl)cc1 (configuration not stated)
active: dose: 1.28 mg/kg/injection, schedule: Q01DX009 (ip), vehicle: saline 245 % of control | dose: 2.55 mg/kg/injection, schedule: Q01DX009 (ip), vehicle: saline 322 % of control | dose: 3.2 mg/kg/injection, schedule: Q03HX008 (ip), vehicle: saline 165 % of control | dose: 6.4 mg/kg/injection, schedule: Q03HX008 (ip), vehicle: saline 180 % of control | dose: 12.8 mg/kg/injection, schedule: Q03HX008 (ip), vehicle: saline 295 % of control | dose: 25.5 mg/kg/injection, schedule: Q03HX008 (ip), vehicle: saline 600 % of control | dose: 51.0 mg/kg/injection, schedule: Q03HX008 (ip), vehicle: saline 600 % of control
inactive: dose: 5.1 mg/kg/injection, schedule: Q01DX009 (ip), vehicle: saline 118 % of control | dose: 10.2 mg/kg/injection, schedule: Q01DX009 (ip), vehicle: saline 86 % of control

CC1CC23C4CCCN2CC2OC2C13C1CC4OC1=O (configuration not stated)
inactive: [9] 114 % of control | [10] 113 % of control | [4] 115 % of control | [5] 113 % of control

O=NN(CCCl)C(=O)Oc1ccc(OC(=O)N(CCCl)N=O)cc1
inactive: dose: 6.25 mg/kg/injection, schedule: Q01DX001 (ip), vehicle: Klucel (hydroxypropylcellulose) (HPC) 116 % of control | dose: 12.5 mg/kg/injection, schedule: Q01DX001 (ip), vehicle: Klucel (hydroxypropylcellulose) (HPC) 119 % of control

c1ccc(-c2cc3cc4c(cc3[nH]2)Oc2ccccc2O4)cc1
inactive: dose: 17.5 mg/kg/injection, schedule: Q01DX009 (ip), vehicle: Klucel (hydroxypropylcellulose) (HPC) 100 % of control and 103 % of control and 109 % of control | dose: 35.0 mg/kg/injection, schedule: Q01DX009 (ip), vehicle: Klucel (hydroxypropylcellulose) (HPC) 100 % of control (2×) and 105 % of control | dose: 70.0 mg/kg/injection, schedule: Q01DX009 (ip), vehicle: Klucel (hydroxypropylcellulose) (HPC) 100 % of control and 103 % of control and 122 % of control | dose: 140.0 mg/kg/injection, schedule: Q01DX009 (ip), vehicle: Klucel (hydroxypropylcellulose) (HPC) 100 % of control

O=c1n(-c2ccccc2)c(=O)n2n1C1C3C4CCC1C4(Cl)C32 (configuration not stated)
inactive: dose: 100.0 mg/kg/injection, schedule: Q01DX001 (ip), vehicle: saline with Tween-80 100 % of control | dose: 200.0 mg/kg/injection, schedule: Q01DX001 (ip), vehicle: saline with Tween-80 94 % of control | dose: 400.0 mg/kg/injection, schedule: Q01DX001 (ip), vehicle: saline with Tween-80 91 % of control

CC1=CCCCN1C(=O)CC1C=CCS1(=O)=O (configuration not stated)
inactive: [13] 100 % of control | [11] 103 % of control | [12] 103 % of control

Fc1ccccc1CN1COc2c(cc(Cl)c3cccnc23)C1
inactive: dose: 100.0 mg/kg/injection, schedule: Q04DX003 (ip), vehicle: Klucel (hydroxypropylcellulose) (HPC) 93 % of control | dose: 200.0 mg/kg/injection, schedule: Q04DX003 (ip), vehicle: Klucel (hydroxypropylcellulose) (HPC) 100 % of control | dose: 400.0 mg/kg/injection, schedule: Q04DX003 (ip), vehicle: Klucel (hydroxypropylcellulose) (HPC) 97 % of control

Nc1c2c(=O)[nH]c(O)cc2nn1-c1ccccc1
inactive: dose: 12.5 mg/kg/injection, schedule: Q01DX005 (ip), vehicle: saline with Tween-80 100 % of control | [13] 96 % of control | [11] 100 % of control and 97 % of control

CC(C)(C)C(=O)Nc1ccc(C(C)(C)C)cc1C(O)(C(F)(F)F)C(F)(F)F
inactive: [5] 92 % of control | [6] 88 % of control

Cl/N=C1/C=CC(Cl)=C/C1=N/Cl
inactive: dose: 25.0 mg/kg/injection, schedule: Q01DX005 (ip), vehicle: saline 100 % of control and 101 % of control | dose: 50.0 mg/kg/injection, schedule: Q01DX005 (ip), vehicle: saline 101 % of control and 102 % of control and 115 % of control | dose: 100.0 mg/kg/injection, schedule: Q01DX005 (ip), vehicle: saline 105 % of control and 106 % of control and 120 % of control | dose: 200.0 mg/kg/injection, schedule: Q01DX005 (ip), vehicle: saline 98 % of control and 101 % of control and 110 % of control
